Data: patent US20160009693A1, “HERBICIDAL COMPOUNDS” (SYNGENTA LIMITED, priority 2013, published 2016)

Tests used:
Type in all cases: in vivo
Settings in all cases: evaluated after 13 days
Setaria faberi (SETFA) [1] = assay: Herbicidal glasshouse test, post-emergence, SETFA
Method in brief: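 Setaria faberi seeds were sown in standard soil in pots and grown for 8 days in a glasshouse at 24/16° C. day/night, 14 hours light and 65% humidity. The seedlings were then sprayed post-emergence with the active ingredient in acetone/water (50:50) containing 0.5% Tween 20. Afterwards they were kept under the same conditions, watered twice daily, and scored for percentage damage on a five point scale.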

[2] = system: Alopecurus myosuroides (ALOMY); assay: Herbicidal glasshouse test, pre-emergence, ALOMY
[3] = system: Ipomoea hederacea (IPOHE); assay: Herbicidal glasshouse test, post-emergence, IPOHE
[4] = system: Echinochloa crus-galli (ECHCG); assay: Herbicidal glasshouse test, post-emergence, ECHCG
Method in brief: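 Echinochloa crus-galli (ECHCG) seeds were sown in standard soil in pots and grown for 8 days in a glasshouse at 24/16° C. day/night, 14 hours light and 65% humidity. The young plants were then sprayed post-emergence with the active ingredient in acetone / water (50:50) containing 0.5% Tween 20. Damage was scored after 13 days.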

[5] = system: Alopecurus myosuroides (ALOMY); assay: Herbicidal glasshouse test, post-emergence, ALOMY
[6] = system: Echinochloa crus-galli (ECHCG); assay: Herbicidal glasshouse test, pre-emergence, ECHCG
Method in brief: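 Echinochloa crus-galli seeds were sown in standard soil in pots and grown for one day in a glasshouse at 24/16° C. day/night, 14 hours light and 65% humidity. Pre-emergence spraying used an aqueous solution of the active ingredient in acetone/water (50:50) with 0.5% Tween 20. Damage was scored after 13 days on a five point scale.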

[7] = system: Amaranthus retoflexus (AMARE); assay: Herbicidal glasshouse test, post-emergence, AMARE
Method in brief: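 Amaranthus retoflexus (AMARE) seeds were sown in pots of standard soil and grown in a glasshouse at 24/16° C. day/night, 14 hours light and 65% humidity for 8 days. The plants were then sprayed post-emergence with an aqueous solution of the active ingredient in acetone/water (50:50) with 0.5% Tween 20. Damage was scored after 13 days.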

[8] = system: Amaranthus retoflexus (AMARE); assay: Herbicidal glasshouse test, pre-emergence, AMARE
Method in brief: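 Amaranthus retoflexus seeds were sown in pots of standard soil and kept one day in a glasshouse at 24/16° C. (day/night), 14 hours light and 65% humidity. They were then sprayed pre-emergence with the active ingredient in acetone/water (50:50) containing 0.5% Tween 20. Plants grew under the same conditions, watered twice daily, and percentage damage was scored after 13 days.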

Solanum nigrum (SOLNI) [9] = assay: Herbicidal glasshouse test, post-emergence, SOLNI
[10] = system: Ipomoea hederacea (IPOHE); assay: Herbicidal glasshouse test, pre-emergence, IPOHE
Setaria faberi (SETFA) [11] = assay: Herbicidal glasshouse test, pre-emergence, SETFA
Solanum nigrum (SOLNI) [12] = assay: Herbicidal glasshouse test, pre-emergence, SOLNI
Method in brief: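 Seeds of Solanum nigrum were sown in pots of standard soil and kept one day in a glasshouse at 24/16° C. day/night, 14 hours light and 65% humidity. For the pre-emergence treatment they were then sprayed with an aqueous solution of the active ingredient formulated in acetone/water (50:50) containing 0.5% Tween 20. Plant damage was rated after 13 days.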

| Structure (SMILES) | POST Application SETFA, percentage damage (five point scale) (Setaria faberi (SETFA) [1]; applied at 1000 g/h) | PRE Application ALOMY, percentage damage (five point scale) ([2]; applied at 1000 g/h) | POST Application IPOHE, percentage damage (five point scale) ([3]; applied at 1000 g/h) | POST Application ECHCG, percentage damage (five point scale) ([4]; applied at 1000 g/h) | POST Application ALOMY, percentage damage (five point scale) ([5]; applied at 1000 g/h) | PRE Application ECHCG, percentage damage (five point scale) ([6]; applied at 1000 g/h) | POST Application AMARE, percentage damage (five point scale) ([7]; applied at 1000 g/h) | PRE Application AMARE, percentage damage (five point scale) ([8]; applied at 1000 g/h) | POST Application SOLNI, percentage damage (five point scale) (Solanum nigrum (SOLNI) [9]; applied at 1000 g/h) | PRE Application IPOHE, percentage damage (five point scale) ([10]; applied at 1000 g/h) | PRE Application SETFA, percentage damage (five point scale) (Setaria faberi (SETFA) [11]; applied at 1000 g/h) | PRE Application SOLNI, percentage damage (five point scale) (Solanum nigrum (SOLNI) [12]; applied at 1000 g/h) | further results |
| --- | --- | --- | --- | --- | --- | --- | --- | --- | --- | --- | --- | --- | --- |
| C=C(C)Cn1c(=O)c(C(=O)Nc2nnnn2C)nn(C)c1=O [Compound 1.091] |  |  |  |  |  |  |  |  |  |  |  |  | POST Application SETFA, percentage damage (five point scale) (Setaria faberi (SETFA) [1]; applied at 250 g/ha): 4 (4=60-79%); PRE Application ALOMY, percentage damage (five point scale) ([2]; applied at 250 g/ha): 4 (4=60-79%); POST Application IPOHE, percentage damage (five point scale) ([3]; applied at 250 g/ha): 5 (5=80-100%); POST Application ECHCG, percentage damage (five point scale) ([4]; applied at 250 g/ha): 5 (5=80-100%); POST Application ALOMY, percentage damage (five point scale) ([5]; applied at 250 g/ha): 4 (4=60-79%); PRE Application ECHCG, percentage damage (five point scale) ([6]; applied at 250 g/ha): 5 (5=80-100%); POST Application AMARE, percentage damage (five point scale) ([7]; applied at 250 g/ha): 5 (5=80-100%); PRE Application AMARE, percentage damage (five point scale) ([8]; applied at 250 g/ha): 5 (5=80-100%); POST Application SOLNI, percentage damage (five point scale) (Solanum nigrum (SOLNI) [9]; applied at 250 g/ha): 5 (5=80-100%); PRE Application IPOHE, percentage damage (five point scale) ([10]; applied at 250 g/ha): 4 (4=60-79%); PRE Application SETFA, percentage damage (five point scale) (Setaria faberi (SETFA) [11]; applied at 250 g/ha): 4 (4=60-79%); PRE Application SOLNI, percentage damage (five point scale) (Solanum nigrum (SOLNI) [12]; applied at 250 g/ha): 5 (5=80-100%) |
| CC#CCn1c(=O)c(C(=O)Nc2nnnn2C)nn(C)c1=O [Compound 1.092] | 5 (5=80-100%) | 4 (4=60-79%) | 5 (5=80-100%) | 5 (5=80-100%) | 4 (4=60-79%) | 5 (5=80-100%) | 5 (5=80-100%) | 5 (5=80-100%) | 5 (5=80-100%) | 5 (5=80-100%) | 5 (5=80-100%) | 5 (5=80-100%) |  |
| Cn1nnnc1NC(=O)c1nn(C)c(=O)n(CC2CC2)c1=O [Compound 1.093] | 5 (5=80-100%) | 5 (5=80-100%) | 5 (5=80-100%) | 5 (5=80-100%) | 5 (5=80-100%) | 5 (5=80-100%) | 5 (5=80-100%) | 5 (5=80-100%) | 5 (5=80-100%) | 5 (5=80-100%) | 5 (5=80-100%) | 5 (5=80-100%) |  |
| Cn1nnnc1NC(=O)c1nn(C)c(=O)n(CCC(F)(F)F)c1=O [Compound 1.094] | 5 (5=80-100%) | 5 (5=80-100%) | 5 (5=80-100%) | 5 (5=80-100%) | 5 (5=80-100%) | 5 (5=80-100%) | 5 (5=80-100%) | 5 (5=80-100%) | 5 (5=80-100%) | 5 (5=80-100%) | 5 (5=80-100%) | 5 (5=80-100%) |  |
| Cn1nnnc1NC(=O)c1nn(C)c(=O)n(CC2CCOCC2)c1=O [Compound 1.095] | 5 (5=80-100%) | 5 (5=80-100%) | 5 (5=80-100%) | 5 (5=80-100%) | 5 (5=80-100%) | 5 (5=80-100%) | 5 (5=80-100%) | 5 (5=80-100%) | 5 (5=80-100%) | 5 (5=80-100%) | 5 (5=80-100%) | 5 (5=80-100%) |  |
| Cn1nnnc1NC(=O)c1nn(C)c(=O)n(CC2CCCCC2)c1=O [Compound 1.096] | 5 (5=80-100%) | 5 (5=80-100%) | 5 (5=80-100%) | 5 (5=80-100%) | 4 (4=60-79%) | 5 (5=80-100%) | 5 (5=80-100%) | 5 (5=80-100%) | 5 (5=80-100%) | 5 (5=80-100%) | 4 (4=60-79%) | 5 (5=80-100%) |  |
| Cn1ncnc1OC(=O)c1cn(C)c(=O)n(-c2cccc(F)c2)c1=O [Compound 2.001] | 1 (1=0-19%) | 1 (1=0-19%) | 1 (1=0-19%) | 1 (1=0-19%) | 1 (1=0-19%) | 1 (1=0-19%) | 4 (4=60-79%) | 1 (1=0-19%) | 4 (4=60-79%) | 1 (1=0-19%) | 1 (1=0-19%) | 1 (1=0-19%) |  |
| Cn1ncnc1NC(=O)c1cn(C)c(=O)n(-c2ccccc2)c1=O [Compound 2.003] | 1 (1=0-19%) | 1 (1=0-19%) | 2 (2=20-39%) | 1 (1=0-19%) | 1 (1=0-19%) | 1 (1=0-19%) | 1 (1=0-19%) | 2 (2=20-39%) | 2 (2=20-39%) | 5 (5=80-100%) | 3 (3=40-59%) | 4 (4=60-79%) |  |
| CCn1nnnc1NC(=O)c1cn(C)c(=O)n(-c2cccc(F)c2)c1=O [Compound 4.003] | 1 (1=0-19%) | 2 (2=20-39%) | 2 (2=20-39%) | 1 (1=0-19%) | 2 (2=20-39%) | 1 (1=0-19%) | 5 (5=80-100%) | 5 (5=80-100%) | 5 (5=80-100%) | 3 (3=40-59%) | 1 (1=0-19%) | 4 (4=60-79%) |  |
| CCCCn1c(=O)c(C(=O)Nc2nnnn2C)cn(C)c1=O [Compound 4.004] | 1 (1=0-19%) | 1 (1=0-19%) | 4 (4=60-79%) | 1 (1=0-19%) | 1 (1=0-19%) | 1 (1=0-19%) | 5 (5=80-100%) | 5 (5=80-100%) | 5 (5=80-100%) | 2 (2=20-39%) | 1 (1=0-19%) | 2 (2=20-39%) |  |
